The values that follow come from publication PMC5182133 (Cell chemical biology, 2016).

Series [1] addresses T1, DCK (Homo sapiens, UniProt P27707). Put plainly: Affinity matrix pulldown and immunoblot for DCK. The settings on record: CAL-51 lysate. It counts as binding. In general terms: A western blot detects proteins with antibodies after separation by electrophoresis.
In series [2] the target is T2, H6PD (Homo sapiens, UniProt O95479).
T2 sequence (O95479 20-791): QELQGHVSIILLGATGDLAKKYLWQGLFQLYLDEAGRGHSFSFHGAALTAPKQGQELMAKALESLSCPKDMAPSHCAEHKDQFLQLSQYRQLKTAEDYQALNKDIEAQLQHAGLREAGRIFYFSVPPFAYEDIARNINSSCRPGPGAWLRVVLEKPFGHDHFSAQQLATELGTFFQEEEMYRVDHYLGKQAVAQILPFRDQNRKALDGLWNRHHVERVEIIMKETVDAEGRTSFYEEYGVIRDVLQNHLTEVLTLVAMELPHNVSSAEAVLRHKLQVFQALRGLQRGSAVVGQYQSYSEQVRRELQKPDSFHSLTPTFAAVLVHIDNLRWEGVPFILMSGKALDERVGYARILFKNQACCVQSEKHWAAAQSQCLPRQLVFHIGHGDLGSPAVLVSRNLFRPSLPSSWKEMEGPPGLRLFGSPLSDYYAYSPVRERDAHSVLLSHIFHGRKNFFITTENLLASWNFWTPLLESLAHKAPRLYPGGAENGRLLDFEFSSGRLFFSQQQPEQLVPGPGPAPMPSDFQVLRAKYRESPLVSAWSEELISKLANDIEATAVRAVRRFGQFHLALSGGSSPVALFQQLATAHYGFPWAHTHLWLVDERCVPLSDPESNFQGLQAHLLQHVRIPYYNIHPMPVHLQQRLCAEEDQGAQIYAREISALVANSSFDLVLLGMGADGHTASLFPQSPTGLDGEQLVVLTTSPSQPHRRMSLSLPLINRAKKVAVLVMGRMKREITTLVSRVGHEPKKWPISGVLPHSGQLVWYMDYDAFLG
Nature of the series: Affinity matrix pulldown and immunoblot for H6PD. It counts as binding. The note with it: CAL-51 lysate; competed with 20 μM free rucaparib.

For series [3] the following is noted: ref Haura et al., 2010; cited from earlier work.
Series [4] deals with T2, H6PD. The note with it: read-out: IC50 for H6PD inhibition (reported); ref Tagawa et al., 2015; cited from earlier work.
Series [5] has as its target T1, DCK. The settings on record: compared to the other PARPi.
The next series has as its system A549 cells. The settings on record: 2 μM cytarabine, 3 days.
The test system of another series is CAL-51 shH6PD cells. Put plainly: Cell viability in CAL-51 shNT vs shH6PD cells. It counts as cell-based. The settings on record: CAL-51 shH6PD vs shNT, 5 d.
In another series the test system is H322 cells. Put plainly: H322 cell viability. It counts as cell-based. The note with it: 5 d, CellTiterGlo. For orientation: ATP-based viability assays read luminescence as a measure of living cells.
The next series deals with CAL-51 H6PD-OE cells. Put plainly: Cell viability in CAL-51 parental vs H6PD-overexpressing cells. It counts as cell-based. The note with it: CAL-51 H6PD-OE vs parental, 5 d.
For series [6] the following is noted: reach as high as; ref Murray et al., 2014; cited from earlier work.
The conditions of series [7]: ref Plummer et al., 2008; cited from earlier work.
The next series relates to CAL-51 cells. Put plainly: Immunoblot of apoptosis markers in CAL-51 cells after PARPi treatment. The settings on record: 48 h, 40 μM PARPi. It counts as cell-based.

T1 sequence (P27707 whole entry): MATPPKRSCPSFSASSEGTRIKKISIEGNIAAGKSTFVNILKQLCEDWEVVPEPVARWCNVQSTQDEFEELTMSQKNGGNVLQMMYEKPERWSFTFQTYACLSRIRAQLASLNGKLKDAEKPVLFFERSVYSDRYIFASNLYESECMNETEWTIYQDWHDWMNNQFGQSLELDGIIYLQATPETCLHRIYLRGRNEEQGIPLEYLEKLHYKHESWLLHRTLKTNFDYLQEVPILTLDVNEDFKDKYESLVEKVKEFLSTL

Turning to `NCCCN1CCC[C@@H](c2ccc(-n3cc4cccc(C(N)=O)c4n3)cc2)C1` [c-niraparib], the “Enrichment of DCK by affinity matrix (immunoblot)” value at DCK [1] is on record as “confirmed”.

Consider `CN(CCCN)Cc1ccc(-c2[nH]c3cc(F)cc4c3c2CCNC4=O)cc1` [c-rucaparib], for which the “Enrichment of H6PD by affinity matrix (immunoblot)” value on H6PD [2] is “specifically enriched”.

Regarding `COc1cc2ncnc(Nc3ccc(F)c(Cl)c3)c2cc1OCCCN1CCOCC1` [gefitinib], in series [3], the “Drug concentration in human tumor tissue relative to plasma levels” value was “up to 40 fold”.

Usually IC50 stands for the concentration that gives 50% inhibition. For the molecule `O=c1c(-c2ccc(O)cc2)coc2cc(O)cc(O)c12` [genistein], the IC50 on H6PD [4] is over 50 µM.

Consider `NC(=O)c1cccc2cn(-c3ccc([C@@H]4CCCNC4)cc3)nc12` [niraparib], for which the “Inhibition of DCK activity in cell-free extracts” value on DCK [5] is listed as “specific inhibition”. The “Rescue of A549 cells from cytarabine toxicity” value in the series on A549 cells (DI-39 as positive control) was “dose-dependently rescued”. In addition, the “Concentrations needed to observe reduced cytarabine toxicity” value in the series on A549 cells (A549 cells) was 20 to 40 µM.

As to `O=C(c1cc(Cc2n[nH]c(=O)c3ccccc23)ccc1F)N1CCN(C(=O)C2CC2)CC1` [olaparib], in the series with CAL-51 shH6PD cells, the “Effect of stable H6PD knockdown on potency (cell viability)” value is reported as “increased the potency”.

With `CNCc1ccc(-c2[nH]c3cc(F)cc4c3c2CCNC4=O)cc1` [rucaparib], in the series with H322 cells, the “Viability of H322 cells at high concentrations compared to other PARPi” value is “decreased more”. Moreover, the “Effect of stable H6PD overexpression on IC50 for inhibition of cell viability” value in the series with CAL-51 H6PD-OE cells is given as “increased the IC50”. Besides, the “Concentrations in murine tumors” value in [6] is given as ~ 20 μM. Besides, the “Plasma levels in patients” value in series [7] is 2.7 µM. Moreover, in the series on CAL-51 cells, the “PARP1 and caspase-3 cleavage compared to the other PARPi” value is “increased”.

On to `Cn1ncnc1[C@H]1c2n[nH]c(=O)c3cc(F)cc(c23)N[C@@H]1c1ccc(F)cc1` [talazoparib], for which, in the series on CAL-51 shH6PD cells, the “Effect of stable H6PD knockdown on potency (cell viability)” value is recorded as “increased the potency”.
